Tested on: isolated stratum corneum
Experiment: Moisturizing potential on isolated stratum corneum by measurement with a corneometer
Conditions: 5% by weight in 80%/20% water/n-propanol, 10 μL/cm2 on SC, 4 hours, 75% relative humidity, 25° C.
Procedure: A test was performed to evaluate the moisturizing potential of the extracts of the invention formulated in a vehicle (80%/20% water/n-propanol) in an amount of 5% by weight relative to the total weight of the composition. The technique makes it possible to measure the dielectric capacitance of the stratum corneum (SC), which depends on the mean dielectric permittivity value of the tissue. The dielectric permittivity varies greatly with the amount of water contained in the SC. The SC samples are conditioned at 75% relative humidity and at 25° C. before/during the measurements and the treatment. The capacitance measurement is performed using a CorneometerTM (Courage & Khazaka, Germany). […] Using at least two different batches of SC, four to five SC samples are measured per treatment. The variation in the corneometer signal (HCM) after treatment is calculated first for each SC sample: […]0). The mean of the DHCMi(vehicle) variations is then calculated for the control samples (treated with the vehicle): this mean value is subtracted from all the DHCMi(active agent) and DHCMi(positive control) variations to correct for the systematic bias. […]

For `OCC(O)CO` [Glycerol, glycerol], the “% norm (corneometer signal variation, vehicle-corrected, normalized to glycerol)” value was 100%.

From patent US20230051563A1, “NON-ELICITED DEDIFFERENTIATED LAVANDULA ANGUSTIFOLIA PLANT CELLS, EXTRACTS THEREOF AND COSMETIC USES THEREOF” (L'OREAL, priority 2019, published 2023)
